In US7179800B2 (priority 2002, dated 2007):
Read-outs that look alike come from different tables or passages of the source.

What was measured:
Male ICR mice = assay: Change in rectal temperature (RT) in mice; assay type: in vivo, mouse; details: Mus musculus, iv, mice, i.v.
Protocol: (§1) Male ICR mice (25–32 g), obtained from Harlan (Dublin, Va.), were housed in groups of five. All animals were kept in a temperature-controlled (20–22° C.) environment with a 12-hour light-dark cycle (lights on at 7 a.m.). Separate mice were used for testing each drug dose in the in vivo behavioral procedures. Brain tissue for binding studies was obtained from male Sprague-Dawley rats (150–200 g) purchased from Harlan Laboratories (Dublin, Va.).
Measurement of spontaneous activity in mice occurred in standard activity chambers interfaced with a Digiscan Animal Activity Monitor (Omnitech Electronics, Inc., Columbus, Ohio). A standard tail-flick apparatus and a digital thermometer (Fisher Scientific, Pittsburgh, Pa.) were used to measure antinociception and rectal temperature, respectively
Resorcinols were synthesized in our labs (Organix, Inc., Woburn, Mass.) according to the procedure specified below and were suspended in a vehicle of absolute ethanol, Emulphor-620 (Rhone-Poulenc, Inc., Princeton, N.J.), and saline in a ratio of 1:1:18. Drugs were administered to the mice intravenously (i.v.) in the tail vein at a volume of 0.1 ml/10 g.
Prior to testing in the behavioral procedures, mice were acclimated to the experimental setting (ambient temperature 22–24° C.) overnight. Pre-injection control values were determined for rectal temperature and tail-flick latency (in sec). […] Tail-flick latency was measured at 20 min post-injection. Maximum latency of 10 sec was used. Antinociception was calculated as percent of maximum possible effect {% MPE=[(test−control latency)/(10-control)]×100}. Control latencies typically ranged from 1.5 to 4.0 sec. At 30 min post-injection, rectal temperature was measured This value was expressed as the difference between control temperature (before injection) and temperatures following drug administration (° C.). Different mice (n=5–6 per dose) were tested for each dose of each compound. Each mouse was tested in each of the 3 procedures.
Based on data obtained from numerous previous studies with cannabinoids, maximal cannabinoid effects in each procedure were estimated as follows: 90% inhibition of spontaneous activity, 100% MPE in the tail flick procedure, and −6° C. change in rectal temperature. ED50's were defined as the dose at which half maximal effect occurred. For drugs that produced one or more cannabinoid effect, ED50's were calculated separately using least-squares linear regression on the linear part of the dose-effect curve for each measure in the mouse tetrad, plotted against log10 transformation of the dose. For the purposes of potency comparison, potencies were expressed as μmol/kg.

CB1 receptor = CB1 receptor (Rattus norvegicus, UniProt P20272); assay: CB1 binding procedure: displacement of [3H]CP 55,940 from rat whole-brain P2 membranes; parameters: whole brain was homogenized and centrifuged; from tissue; host or cells: rat whole brain, P2 membrane fraction; details: for Ki: means ± SEM, [3H]CP 55,940, rat brain membranes, read-out: Ki (nM) CB1; for fold decrease in CB1 affinity: relative to the comparator analog
Sequence of CB1 receptor (P20272 whole entry): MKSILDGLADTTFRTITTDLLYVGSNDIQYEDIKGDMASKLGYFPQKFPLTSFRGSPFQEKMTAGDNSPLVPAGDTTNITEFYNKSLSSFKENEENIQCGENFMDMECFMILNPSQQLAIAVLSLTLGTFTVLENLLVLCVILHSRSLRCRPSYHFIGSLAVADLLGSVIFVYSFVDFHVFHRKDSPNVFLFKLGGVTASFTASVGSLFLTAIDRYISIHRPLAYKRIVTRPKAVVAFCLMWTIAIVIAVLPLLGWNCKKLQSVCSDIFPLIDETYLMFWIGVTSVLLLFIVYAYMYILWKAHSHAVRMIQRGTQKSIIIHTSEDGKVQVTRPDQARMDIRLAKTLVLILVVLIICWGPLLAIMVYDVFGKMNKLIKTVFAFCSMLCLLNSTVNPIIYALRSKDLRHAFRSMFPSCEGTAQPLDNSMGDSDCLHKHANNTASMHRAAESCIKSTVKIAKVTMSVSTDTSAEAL
Protocol: as §1
The methods used for tissue preparation and binding have been described previously (Compton et al., 1993) and are similar to those described by Devane et al. (1988). All assays, as described briefly below, were performed in triplicate, and the results represent the combined data from three to six individual experiments.
Following decapitation and rapid removal of the brain, whole brain was homogenized and centrifuged. The resulting pellet was termed P1. The supernatant was saved and combined with the two subsequent supernatants obtained from washing of the P1 pellet. The combined supernatant fractions were centrifuged, resulting in the P2 pellet. After further incubation and centrifuging, this pellet was resuspended in assay buffer to a protein concentration of approximately 2 mg/ml. The membrane preparation was quickly frozen in a bath solution of dry ice and 2-methylbutane (Sigma Chemical Co., St. Louis, Mo.), then stored at −80° C. for no more than 2 weeks. Prior to performing a binding assay an aliquot of frozen membrane was rapidly thawed and protein values determined by the method of Bradford (1976).
Binding was initiated by the addition of 150 μg of P2 membrane to test tubes containing 1 nM of [^3H] CP 55,940 (79 Ci/mmol) and a sufficient quantity of buffer to bring the total incubation volume to 1 ml. Nonspecific binding was determined by the addition of 1 μM unlabeled CP 55,940. Following incubation at 30° C. for 1 hr, binding was terminated by addition of ice cold buffer and vacuum filtration through pretreated filters in a 12-well sampling manifold (Millipore, Bedford, Mass.). After washing, filters were placed into plastic scintillation vials (Packard, Downer Grove, Ill.) and shaken. The quantity of radioactivity present was determined by liquid scintillation spectrometry.
In addition, multiple linear regression was used to calculate the overall degree of relationship between CB1 binding affinity and potency in the mouse measures for all active cannabinoids. […] Ki values for CB1 and CB2 binding were obtained from Scatchard displacement analysis as determined via EBDA program of the KELL software package (Biosoft, Milltown, N.J.).

[1] = 95% confidence limits in parentheses, read-out: ED50 RT (rectal temperature)

SMILES	ED50 (Male ICR mice; Table 6, read-out: R.T. ED50) [mg/kg]	ED50 (Male ICR mice; [1]) [µmol/kg]	Ki (CB1 receptor) [nM]	fold decrease in CB1 affinity (CB1 receptor)
CCCCCCC(C)(C)c1cc(O)c(C2CCC(C)CC2)c(O)c1 (centres unmarked) [O-1659, 2-(4-Methylcyclohexyl)-5-(1′,1′-dimethylheptyl)-resorcinol]	1.12	3.3	45 ± 1	about 5 fold
CCCCCCC(C)(C)c1ccc(-c2cc(C)ccc2C(C)C)c(O)c1 [O-1376, 3-1′,1′-Dimethylheptyl-6-(2-isopropyl-5-methylphenyl)phenol]	0.822	2.3	33 ± 4	
CCCCCCC(C)(C)c1cc(O)c(C2C3CC4CC(C3)CC2C4)c(O)c1 (centres unmarked) [O-1660, 2-(2-Adamantyl)-5-(1′,1′-di-methylheptyl)-resorcinol]	1.73	4.6	7 ± 1	
CCCC(C)(C)c1cc(O)c(C2CCCC(C)C2)c(O)c1 (centres unmarked) [O-1890, 2-(3-Methylcyclohexyl)-5-(1′,1′-dimethylbutyl)-resorcinol]	21	72	96 ± 4	
CCCCCCC(C)(C)c1cc(O)c([C@H]2CCCC(C)C2)c(O)c1 (single isomer, unassigned) [O-1826]	1.16	3.6	40	
CCCCCCC(C)(C)c1cc(O)c(C2CCSCC2)c(O)c1 [O-1425]	4.53	13	153 ± 17	14 fold
CCCCCCC(C)(C)c1cc(O)c(C2CCSC2)c(O)c1 (centres unmarked) [O-1661, 2-(Tetrahydrothiophen-3-yl)-5-(1′,1′-dimethylheptyl)-re-sorcinol]	7.78	24	138 ± 4	
CCCCCCC(C)(C)c1cc(O)c(C2CCCCC2)c(O)c1 [O-1422, Cyclohexyl-5-(1′,1′-dimethylheptyl)-resorcinol]	0.194	0.6	11 ± 2	
CCCCCCC(C)(C)c1cc(O)c(C2CCCCC2C)c(O)c1 (centres unmarked) [O-1658, 2-(2-Methylcyclohexyl)-5-(1′,1′-dimethylheptyl)-resorcinol]	0.12	0.3	16 ± 2	
CCCCCCC(C)(C)c1cc(O)c(C2=CCCCC2)c(O)c1 [O-1423]	2.94	9	97 ± 5	
CCCCCCC(C)(C)c1cc(O)c(C2CCCC(C)C2)c(O)c1 (mixture of isomers) [O-1657, 2-(3-Methylcyclohexyl)-5-(1′,1′-dimethylheptyl)-resorcinol]	0.29	0.9	14	
